Source: PubChem BioAssay AID977621 (Broad Institute, 2014)
Results filed as inconclusive are left out. Calls of active or inactive are those of the source.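 The calls were made as follows: active = Wild-type ribosome reporter drop at least double the humanized mutant ribosome reporter drop, growth loss under a set limit; inconclusive = no clear call, values can overlap the other calls; inactive = the rest.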

Test system: E. coli wild-type GFP strain growth, fluorescence, 24 h
Assay: wild-type E. coli growth inhibition versus H69 humanized strain – H69 mutant RFP, wild-type GFP, cherry-pick, dose response (AID 977621);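 also: wild-type GFP and H69 mutant RFP strains grown together 50/50 in each well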
[1] = E. coli mixed culture, 24 h, measured here: total growth OD600, test 2

Structure (SMILES)	AC50	AC50 [1] [µM]	AC50 (measured here: total growth OD600, test 2) [µM]
O=C(O)c1ccc(-c2noc(-c3cccc(Cl)c3)n2)cc1	> 100 µM (inactive)		
CC(=O)Nc1ccc(S(=O)(=O)Nc2cccc(-c3nc4cc(C)ccc4o3)c2)cc1		> 100	
COc1ccc(OCC(O)CNS(=O)(=O)c2cccc(Cl)c2)cc1 (stereo not given)		> 100	
COc1ccc(CNC(=O)CSCc2c(F)cccc2Cl)cc1		> 100	
Cc1cnc(NC(=O)Cc2c[nH]c3ccccc23)s1	> 100 µM (inactive)		
Cc1ccc(-c2nc(CN3CCCCC3c3cccc(F)c3)c(C)o2)o1 (stereo not given)		> 100	
COc1ccc(NC(=O)Nc2cccc3c2O[C@H](CN(C)S(=O)(=O)c2ccc(Cl)cc2)[C@@H](C)CN([C@H](C)CO)C3=O)cc1	> 100 µM (inactive)		
Cc1c(-c2cccc(Cl)c2)nc2ccccc2c1C(=O)N1CCC2(CC1)OCCO2	> 100 µM (inactive)		> 100
Cc1cc(C)c(S(=O)(=O)NCCOc2ccccc2)c(C)c1-n1cnnn1	> 100 µM (inactive)		
CCN(CC)S(=O)(=O)c1cc(NS(=O)(=O)c2cccc(Cl)c2Cl)ccc1C	> 100 µM (inactive)	33.4	
CCOc1ccc(OCc2cccc(C(=O)O)c2)cc1	> 100 µM (inactive)		
Cc1csc2c(N3CCC(C(=O)O)CC3)ncnc12	> 100 µM (inactive)		
CN1C(=O)c2ccccc2OC1(C)Cc1ccccc1 (stereo not given)	> 100 µM (inactive)	41.6	
Cc1cc(C(=O)c2ccc3ccccc3c2)c(C)o1	> 100 µM (inactive)		
C=CCn1c(-c2sc(-c3ccccc3)nc2C)n[nH]c1=S	> 100 µM (inactive)		
CN1CCN(c2nc(Nc3ccc(O)cc3)nc3ccccc23)CC1	> 100 µM (inactive)		
C=CCn1c(C)cc(C(=O)COC(=O)CNC(=O)c2ccccc2)c1C		44	
CCCC[n+]1ccn(-c2nc3ccccc3nc2[N-]S(=O)(=O)c2cccs2)c1	> 100 µM (inactive)	> 100	
Nc1ccccc1Sc1ccc(C(F)(F)F)cc1[N+](=O)[O-]	> 100 µM (inactive)		
CCOc1ccccc1OCCCC(=O)N1CCN(S(=O)(=O)c2cc(F)ccc2F)CC1	> 100 µM (inactive)		
CC1(C(=O)Nc2ccc3c(c2)OCCO3)CSCC(=O)N1CCOc1ccccc1 (stereo not given)	> 100 µM (inactive)	> 100	
CCN(C(=O)COC(=O)CCc1ccccc1)c1ccccc1	> 100 µM (inactive)	> 100	
C[n+]1ccccc1/C=C/c1cc(Br)ccc1O	> 100 µM (inactive)		

Structure (SMILES)	AC50	AC50 [1] [µM]	AC50 (measured here: total growth OD600, test 2) [µM]
CCCC(=O)N(CCc1ccc(OC)cc1)Cc1nc2ccccc2c(=O)[nH]1	> 100 µM (inactive)		
CC(C)Cc1nnc(NS(=O)(=O)c2ccccc2)s1	> 100 µM (inactive)		
Cc1cc(C(=O)COC(=O)c2ccc(O)cc2)c(C)n1CC(F)(F)F		> 100	
O=C(COC(=O)C1CC1)Nc1nc(-c2ccc(F)c(F)c2)cs1		> 100	
N#CC1CN(Cc2ccccc2)CN(Cc2ccccc2)C1	> 100 µM (inactive)		
COc1ccccc1C1CCN(C(=O)c2cccs2)CC1		> 100	
COc1ccc(-n2c(-c3ccc(C)cc3)nc3ccccc3c2=O)cc1	> 100 µM (inactive)		
O=C1c2ccccc2NC(c2cccc(F)c2)N1Cc1ccco1 (stereo not given)		9.09	
Cc1ccc(S(=O)(=O)NCc2c(-c3ccccc3)noc2C)cc1		> 100	
Cc1ccc2oc(C(=O)N(CCO)Cc3ccccc3)c(C)c2c1	> 100 µM (inactive)	32.4	
Cc1cccc(-c2ccc([C@@H]3[C@@H](CO)N4CCCCN(S(=O)(=O)c5ccccc5C)C[C@H]34)cc2)c1		48.8	
CCNC(=O)C1(C)CCCN(Cc2cccc3ccccc23)C1 (stereo not given)	> 100 µM (inactive)	> 100	
O=S(=O)(c1ccccc1)N1CCN=C1SCc1cccc(Cl)c1	> 100 µM (inactive)	35.9	
Cc1ccccc1-c1cc(C(=O)NCc2cccs2)n(CC2CC(c3cccnc3)=NO2)n1 (stereo not given)	> 100 µM (inactive)	> 100	
Cc1ccccc1OCC(O)Cn1c(NCc2ccco2)nc2c1c(=O)n(C)c(=O)n2C (stereo not given)	> 100 µM (inactive)	> 100	
COc1cc(-c2ccc(N3C(c4ccsc4)=Cc4ccc(F)cc4C3c3c[nH]c4ccc(C#N)cc34)cc2)cc(OC)c1OC (stereo not given)		> 100	
CCC(=O)Nc1nc2ccc(NC(=O)c3cc(OC)c(OC)c(OC)c3)cc2s1	> 100 µM (inactive)		
CCOC(=O)c1cnc2c(c(C)nn2C)c1Oc1ccc(OC)cc1		> 100	
NC(=O)CSc1nc2cc([N+](=O)[O-])ccc2n1-c1cccc(C(F)(F)F)c1	> 100 µM (inactive)		
Nc1ccccc1Sc1c[nH]c2ccccc12		> 100	
CC(NC(=O)c1ccncc1)c1ccc(Cl)cc1Cl (stereo not given)		> 100	
O=C(c1ccc2c(c1)CCN2S(=O)(=O)c1ccccc1)N1CCN(c2ccccc2)CC1	> 100 µM (inactive)	> 100	
O=C(c1cccc(F)c1)N1CCN(c2ccc([N+](=O)[O-])c3cccnc23)CC1	> 100 µM (inactive)	> 100	

Structure (SMILES)	AC50	AC50 [1] [µM]	AC50 (measured here: total growth OD600, test 2) [µM]
CC1(C(=O)NS(=O)(=O)c2cccc(C#N)c2)CCN1C(=O)C1(c2ccc(Cl)cc2)CCC1 (stereo not given)	> 100 µM (inactive)	> 100	
CCc1cccc(NC(=O)CCC(=O)N2CCSc3ccccc32)c1	> 100 µM (inactive)	47.6	
Cc1noc(C)c1NC(=O)Nc1ccc2c(c1)C(=O)N([C@H](C)CO)C[C@H](C)[C@H](CN(C)C(=O)Nc1ccc3c(c1)OCO3)OCCCC[C@H](C)O2		> 100	
COC(=O)C(Cc1csc2ccc(Cl)cc12)NC(=O)c1ccc(Cl)cc1 (stereo not given)	> 100 µM (inactive)	18.4	
O=C(CCCOc1ccccc1)NCCc1nc2ccccc2[nH]1	> 100 µM (inactive)		
O=C(C[C@H]1CC[C@H]2[C@@H](COC[C@@H](O)CN2C(=O)Nc2ccc(Cl)cc2)O1)N1CCCCC1	> 100 µM (inactive)		
C=CCn1c(C)cc(C(=O)CSc2nnc(C3CC3)n2C2CC2)c1C		> 100	
O=C(Cc1cccc(NC(=O)C2CCN(C(=O)C3CCCCC3)CC2)c1)Nc1cccc(C(=O)N2CCCC2)c1		> 100	
COc1cc2nc(Nc3ccc(F)cc3)nc(N)c2cc1OC	> 100 µM (inactive)		
Cc1ccc(CNC(=O)c2ccc(Br)o2)cc1	> 100 µM (inactive)		
CN(C)CCCNc1ccc(-c2cc(Nc3cccc(Cl)c3)ncn2)cn1	> 100 µM (inactive)	> 100	
O=C(NCc1cccnc1)c1ccc(COc2ccccc2Br)o1	> 100 µM (inactive)	46.2	
CCC(C(=O)NC1CCCC1)n1c(-c2ccnc3ccccc23)nc2ccccc21 (stereo not given)		> 100	
CCCc1nc2cc(C)c(Br)c(C)n2c1CC1CCCCC1	> 100 µM (inactive)	48.9	
CSCCC(=O)Nc1nc(-c2ccccn2)cs1	> 100 µM (inactive)		
CC(=O)OC(COc1cccc(C)c1)Cn1cnc2ccccc21 (stereo not given)		48.6	
COc1cc(NC(=O)C(c2ccccc2)c2ccccc2)c(C(=O)O)cc1OC	> 100 µM (inactive)		
C[C@@H](NC(=O)C[C@@H]1CC[C@@H]2[C@H](COC[C@H](O)CN2C(=O)Nc2cccc(F)c2)O1)c1ccccc1	> 100 µM (inactive)		
Cc1ccc(C#N)c(SCc2ccccc2F)n1	> 100 µM (inactive)	34.2	
C[C@@H]1CCCCO[C@H](CN(C)C)[C@H](C)CN([C@H](C)CO)C(=O)c2cc(NC(=O)Nc3cccc4ccccc34)ccc2O1		> 100	
O=C(c1cnc(Cc2c[nH]c3ccccc23)c(I)c1)N1CCCCC1		29.6	
COc1ccccc1NC(=O)CN1CCSc2ccccc21	> 100 µM (inactive)		
Cc1cc(C(=O)Nc2cccc3c2O[C@H](CN(C)S(=O)(=O)c2ccc(Cl)cc2)[C@H](C)CN([C@H](C)CO)C3=O)n(C)n1	> 100 µM (inactive)		

Structure (SMILES)	AC50	AC50 [1] [µM]	AC50 (measured here: total growth OD600, test 2) [µM]
CCc1ccc(C(=O)Nc2cccnc2Oc2ccc(Cl)cc2)cc1		> 100	
O=C(CCc1nc2ccccc2s1)OCC(=O)c1ccc[nH]1	> 100 µM (inactive)		
CCOc1ccccc1N(CC(=O)Nc1ccccc1F)S(=O)(=O)c1ccccc1	> 100 µM (inactive)	15.6	
Cc1onc(-c2ccccc2Cl)c1C(=O)N[C@@H](C)c1ccccc1	> 100 µM (inactive)	> 100	
COc1ccc(OC)c(CN2CCCC(C(=O)c3ccccc3SC)C2)c1 (stereo not given)	> 100 µM (inactive)		
COc1cccc(CN(C)Cc2nc(Cc3ccccc3Cl)no2)c1		51.7	
CCC(=O)N(CCC(c1ccco1)C(C)C)Cc1ccccc1 (stereo not given)	> 100 µM (inactive)		
CCOc1ccc(S(=O)(=O)Nc2ccc(S(=O)(=O)N3CCCC3)cc2)cc1	> 100 µM (inactive)		
CCOC(=O)C(CC)Sc1cc(C)nc2ccc(OC)cc12 (stereo not given)		> 100	
CC(=O)Nc1ccc(OCC(=O)N2CCC(Cc3ccccc3)CC2)cc1		> 100	
OCCCc1cn(-c2ccccc2)c2ccccc12	> 100 µM (inactive)		
COc1ccc(CN(C)C[C@H]2Oc3ccc(NS(=O)(=O)c4ccc(Cl)cc4)cc3CC(=O)N([C@@H](C)CO)C[C@H]2C)cc1		> 100	
Fc1cccc(CCN2C(=S)NC[C@@H]2CC2CCCCC2)c1	> 100 µM (inactive)	6.09	
C[C@@H]1CCCCO[C@@H](CN(C)C(=O)c2ccccc2)[C@H](C)CN([C@@H](C)CO)C(=O)c2cc(NC(=O)c3ccccc3)ccc2O1	> 100 µM (inactive)		
C[C@@H]1CCCCO[C@@H](CN(C)C(=O)c2ccccc2)[C@H](C)CN([C@@H](C)CO)C(=O)c2cc(NC(=O)Cc3ccccc3)ccc2O1	> 100 µM (inactive)	> 100	
COc1cccc(NC(=O)CN(C)CC(=O)Nc2ccc(Br)cc2)c1	> 100 µM (inactive)		
COc1ccc(NC(=O)CN(c2ccccc2OC)S(=O)(=O)c2cccs2)cc1Cl		> 100	
O=C1c2ccccc2S(=O)(=O)c2cc(N3CCC(C(=O)N4CCCCC4)CC3)ccc21	> 100 µM (inactive)		
COc1ccc(C2CC(=O)Oc3cc(C)cc(C)c32)cc1 (stereo not given)		> 100	
C[C@@H]1CN([C@H](C)CO)C(=O)c2cccc(NC(=O)Nc3ccc4c(c3)OCO4)c2O[C@@H]1CN(C)C(=O)Nc1ccc2c(c1)OCO2		> 100	
Cc1cc(NC(=O)CSc2nccn2-c2cccc(C)c2C)no1	> 100 µM (inactive)	> 100	
